These results are taken from the METLIN SMRT retention time set (Domingo-Almenara et al. 2019).

The data set can be described thus: gradient 5% acetonitrile 3 min, to 50% in 2 min, to 85% in 15 min, held 3 min, 100 µL/min. The conditions noted are these: column: Zorbax Extend-C18 2.1 x 50 mm; eluents: water / acetonitrile, 0.1% formic acid. The gist of the method: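 The system's dead and dwell volumes were 40 μL and 900 μL, with a Zorbax Extend-C18 column (2.1 × 50 mm, 1.8 μm) run at 100 μL/min in water and acetonitrile containing 0.1% formic acid each. Pure standards were analyzed in mixtures of ~100 molecules by HPLC–quadrupole time-of-flight mass spectrometry in positive and negative ionization mode. Retention time was assigned from computationally picked, manually inspected adduct peaks.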
Molecule `COc1ccc(CC(=O)Nc2cnn(-c3ncc(N(C)C)cn3)c2)c(Cl)c1` returned an RP-LC retention time of 753 s. The result for `CCc1nc(-c2csc(S(=O)(=O)N3CCC(C(=O)Nc4cccc(C#N)c4)CC3)c2)no1` reads 966 s. The result for `COc1cccc(NC(=O)N2CCCC2c2nc(-c3cccc(OC)c3)no2)c1` (centres undefined) reads 947 s; that for `O=C(NCCN1CCCCC1)c1nc2ccccn2c1-c1ccsc1`, 527 s. The molecule `COC(=O)c1ncn2c1C(=O)N(Cc1ccc(C)cc1)C(C)(C(=O)NCc1ccccc1)C2` (centres undefined) yielded an RP-LC retention time of 747 s. The result for `O=C(NCCCN1CCOCC1)c1ccc(-c2c(-c3ccc(F)cc3)ncn2C2CCCC2)o1` reads 590 s; that for `Cc1cc(C(=O)Nc2nc3c(s2)CN(C(=O)c2cccn(C)c2=O)CC3)no1`, 595 s.

For `COc1ccc(CNC(=O)c2ccc3c(c2)N(C)C(=O)c2ccccc2O3)cc1`, the RP-LC retention time was determined as 863 s. The result for `COc1cccc2sc(N(C)CC(=O)NCCc3cccs3)nc12` reads 772 s. The value for `O=C(CCc1nc(CSc2nnc(-c3ccccc3)o2)no1)Nc1ccccc1` was 863 s. The value for `CNC(=O)C1CCCN(S(=O)(=O)c2ccc(OC)c(OC)c2)C1` (centres undefined) was 657 s; that for `CCc1ccccc1NC(=O)N1CCC2(CC1)NC(=O)c1ccccc1N2CC` was 797 s. `COCCn1cc2c3c(cccc31)CN(C(=O)c1ccc(Cl)s1)CC2`: the RP-LC retention time was found to be 1060 s.

Take `O=C(N1CC(Oc2ccc(-c3nc(-c4ccccc4)no3)cc2)C1)C1(c2ccccc2)CC1`: the RP-LC retention time was 1310 s. Regarding `O=C(CN1C(=O)COc2ccc(C(=O)N3CCN(c4ccccn4)CC3)cc21)N1CCCC1`, the RP-LC retention time was 572 s. The value for `C=CCNC(=O)c1cnn(-c2ccc(-c3nc(C(C)(C)C)no3)cn2)c1C` was 759 s; that for `CCN1CCN(c2cc(C)c3cc(NC(=O)CC(C)C)ccc3n2)CC1` was 560 s; that for `Cc1ccc(C)c(S(=O)(=O)Nc2ccc(Cn3cncn3)cc2)c1` was 725 s. With `CCOc1nc2c(c(C)nn2-c2cccc(C)c2)c(C)c1CCC(=O)NCCc1c[nH]c2ccccc12`, the RP-LC retention time was determined as 1260 s. The result for `CCn1c(C(=O)NCCC(C)C)cc2c(=O)oc3ccccc3c21` reads 751 s.

`Cc1ccc(NC(=O)C2CC(=O)N(c3n[nH]c4cccc(F)c34)C2)cc1` (centres undefined) registered an RP-LC retention time of 708 s. The molecule `Cn1c(N2CCCC(C(=O)NCCN3CCN(c4ccccc4F)CC3)C2)cc(=O)n(C)c1=O` (centres undefined) came in with an RP-LC retention time of 591 s.

In the case of `Cc1cccc(CNC(=O)CCC2CCN(S(=O)(=O)c3ccccc3C)CC2)c1`, the RP-LC retention time was 982 s. The value for `O=C(NCc1ccccn1)C1CCc2sc(C(=O)N3CCCCC3)cc2C1` (centres undefined) was 506 s; that for `Cc1ccc(C2c3[nH]c4ccccc4c3CCN2C(=O)Cc2cccs2)cc1` (centres undefined) was 988 s. Regarding `COc1ccc(CNC(=O)C2=Cc3cccc(OC)c3OC2)cc1OC`, the RP-LC retention time turned out to be 788 s. `COC(=O)c1ccc2c(=O)n(-c3ccc4c(c3)OCO4)c(N3CCN(c4ccccc4)CC3)nc2c1`: the RP-LC retention time was found to be 1110 s. Take `CN(C)C[C@@H]1CN(S(C)(=O)=O)C[C@H]1NC(=O)c1cccn1C`: the RP-LC retention time stood at 573 s. On to `Cn1c(N2CCCC(C(=O)N3CCN(c4ccccc4F)CC3)C2)cc(=O)n(C)c1=O` (centres undefined), for which the RP-LC retention time turned out to be 765 s. The value for `Cc1nc(CCNC(=O)Cc2ccsc2)no1` was 640 s; that for `Cc1nc2cc(-c3noc(-c4cccc(F)c4)n3)ccc2n(C)c1=O` was 1020 s. The result for `Cc1cccc(CC(=O)NCC2CCN(Cc3ccccc3)CC2)c1` reads 566 s; that for `O=C1c2ccccc2NC(c2cc(Cl)cc(Cl)c2O)N1CCc1ccccn1` (centres undefined), 723 s.

`CCn1nc(C)cc1C(=O)Nc1nc(-c2cccs2)cs1`: the RP-LC retention time is 903 s.

Molecule `CCOc1ccc(S(=O)(=O)N2CCC(C(=O)NCCO)CC2)cc1C` returned an RP-LC retention time of 699 s. The value for `CCCCc1ccc(NC(=O)CSc2nccc(N3CCCC3)n2)cc1` was 803 s; that for `Cc1ccc(-c2nnc(Cc3nc(-c4cccs4)no3)o2)cc1F` was 1010 s; that for `Cc1ccc(-c2cc(C(=O)NC3CCC(C)CC3)c(C)[nH]2)cc1` (centres undefined) was 1050 s.

In the case of `COc1ccc(Cl)cc1S(=O)(=O)Nc1ccc2nc(N3CCN(C)CC3)cc(C(=O)O)c2c1`, the RP-LC retention time turned out to be 604 s. In turn, `O=C(Cc1ccsc1)N1CCC(c2nc(-c3ccccc3)no2)C1` (centres undefined) gave an RP-LC retention time of 864 s. With `COc1ccccc1-c1nnc(-c2ccc(-n3ccnc3)nc2)o1`, the RP-LC retention time turned out to be 614 s. `O=C(NCc1cccs1)C1CCCN(S(=O)(=O)c2c[nH]c(C(=O)N3CCCC3)c2)C1` (centres undefined) showed an RP-LC retention time of 734 s. Molecule `Cc1noc(CNC(=O)C2CCN(C(=O)NCc3ccc(F)cc3)CC2)n1` yielded an RP-LC retention time of 615 s.

Consider `Cc1ccc(Cl)cc1NC(=O)Cn1nc2c(Oc3ccc(C(C)C)cc3)nccn2c1=O`, for which the RP-LC retention time turned out to be 1080 s. For the molecule `Cc1cc(=O)n(CC(=O)Nc2ccc3c(c2)OCO3)c(N2CCc3ccccc3C2)n1`, the RP-LC retention time amounted to 742 s. Take `CCc1ccccc1NC(=O)Cn1c(N2CCOCC2)nc(C)cc1=O`: the RP-LC retention time was determined as 674 s. On to `O=C(Nc1ccccc1Cl)N1CCC(N2CCN(Cc3cccc(F)c3)C(=O)C2=O)CC1`, for which the RP-LC retention time came out at 749 s. The result for `CCC(CC)N1CCN(S(=O)(=O)c2cc(-c3[nH]ncc3C(=O)N(C)C)oc2C)CC1` reads 577 s.

`O=C(NC1CCCCCC1)C1CCN(C(=O)c2ncn3c2COC(c2ccccc2)C3)CC1` (centres undefined): the RP-LC retention time was determined as 794 s. In turn, `O=C(C1=NN(Cc2ccccc2F)c2cc(Cl)ccc2S1(=O)=O)N1CCOCC1` displayed an RP-LC retention time of 833 s.

Consider `CCCNC(=O)Cc1c(C)nn(-c2nc(-c3ccc(Cl)cc3)cs2)c1C`, for which the RP-LC retention time was determined as 1110 s. The result for `Cc1ccc(S(=O)(=O)Nc2cc(-c3cn4cccc(C)c4n3)ccc2C)cc1C` reads 729 s; that for `COc1ccc2c(c1)C1(CCN(C(=O)c3ccc(F)c(F)c3)C1)C(=O)N2C` (centres undefined), 634 s. The result for `Cc1cccc(-n2ccc(=O)c(-c3nc(-c4ccc5c(c4)OCO5)no3)n2)c1` reads 894 s. The result for `CC(C)NCc1ccc(-c2ccc(Cl)cc2)o1` reads 669 s; that for `Cc1ccc(N2CCN(C(=O)c3csc(C(=O)NC4CC4)n3)CC2)cc1`, 800 s; that for `Cc1cccc(CN2C(=O)C3(CCOCC3)CC2c2nnnn2C(C)(C)C)c1` (centres undefined), 833 s.

In turn, `Cc1cnc(C(=O)N2CCCCCC2c2nnc(C)o2)cn1` (centres undefined) showed an RP-LC retention time of 649 s. With `CN1C(=O)C(C)(C(=O)NCc2ccccc2Cl)Oc2cccnc21` (centres undefined), the RP-LC retention time was 795 s. For the molecule `Cc1cccc(Sc2nccnc2N2CCCC(C(=O)NCCCc3ccccc3)C2)c1` (centres undefined), the RP-LC retention time turned out to be 1190 s.

For `CCOC(=O)c1ccccc1NC(=O)c1c2c(cn(-c3ccccc3)c1=O)C(=O)CC(C)(C)C2`, the RP-LC retention time was determined as 1120 s. The result for `O=C(Nc1ccccc1F)N1CC2CN(S(=O)(=O)c3ccc(F)cc3)CC(C1)O2` reads 758 s. `CCn1nccc1C(=O)N1CCC2(CC1)N=C(c1ccc(C)cc1)NO2` had an RP-LC retention time of 734 s. In turn, `COc1ccccc1NC(=O)N1CCC(c2nnc(-c3ccccc3OC)s2)CC1` came in with an RP-LC retention time of 825 s. `Cn1cccc1Cc1nnc(SCC(=O)Nc2ccccc2F)n1CCc1ccccc1`: the RP-LC retention time came to 850 s. The value for `O=C(C1CCC1)N1CCc2sc(S(=O)(=O)NCc3ccc(F)cc3)cc2C1` was 877 s; that for `O=C(Cn1nc2c(Oc3cccc(F)c3)nccn2c1=O)Nc1cc(F)ccc1F` was 885 s. Molecule `CC(C)NC(=O)N(C1CC1)C1CCOC2(CCN(C(=O)C3CCCC3)CC2)C1` (centres undefined) showed an RP-LC retention time of 814 s. Molecule `CC(=O)Nc1ccc(C2(C(=O)NCc3ccc(C)cc3)CCC2)cc1` yielded an RP-LC retention time of 790 s. `Cc1ccc(C(C)NC(=O)Cn2ccc3c(C)nn(C)c3c2=O)cc1C` (centres undefined): the RP-LC retention time was found to be 784 s. The result for `Cc1cc(C)n(Cc2nc(-c3ccc(NC(=O)Cc4ccc(F)cc4)cc3)oc2C)n1` reads 917 s. In the case of `CN(CC(=O)N1CCN(c2ccccc2F)CC1)S(=O)(=O)c1c[nH]c(C(=O)N2CCCCC2)c1`, the RP-LC retention time is 836 s. The result for `CCCNc1nccn(C(C)C)c1=O` reads 544 s; that for `Cc1cc(NC(=O)CSc2nnc(Cc3cccn3C)n2CCc2ccccc2)no1`, 762 s; that for `COCCOCc1nc(C2CCCN2S(=O)(=O)c2ccccc2)no1` (centres undefined), 781 s. The value for `CN1CCN(CCCNC(=O)C2CCN(C(=O)c3ccc(-n4ccc5ccccc54)s3)CC2)CC1` was 630 s; that for `COc1ccccc1-c1cc(C(F)(F)F)n2ncc(C(=O)OCCN3CCCC3=O)c2n1` was 894 s; that for `O=C(C1CCN(c2nc3ccc(-c4ccccc4)nc3s2)CC1)N1CCOCC1` was 810 s. As for `COc1cccc(C2OC(c3cccc(Cn4cccn4)c3)=NN2C(C)=O)c1OC(C)=O` (centres undefined), the RP-LC retention time was 832 s.
